After the bases stand the sugars from the 5' end (letter, count) and the backbone: PS all phosphorothioate, else s phosphorothioate and o phosphodiester by linkage. Methylation of C is not given here. e = 2'-O-(2-methoxyethyl) (MOE); k = constrained ethyl (cEt); d = 2'-deoxy (DNA); m = 2'-O-methyl

The series deals with HSD17B13. The conditions noted are these: ASO, HepaRG.

Under “1 µM”, GAATTATTTCTTGCGA (sugars k3 d10 k3, PS) returned a target mRNA inhibition of 61%. For the setting “1 µM”, GTATAGTTATCTTCTC (sugars k3 d10 k3, PS) had a target mRNA inhibition of 59%. Same read-out and setting: with GTAATGAGAACAATCT (sugars k3 d10 k3, PS) the figure was 48%; with ATCTAGAATTAAGGGC (sugars k3 d10 k3, PS), 41%. With “CTCAGGCTGTAAGAGT (sugars kkdddddddddkekek, PS)”, the target mRNA inhibition (1 µM) worked out at 10%. Still for that read-out and setting: next, “TTATAACTACAAGAGG (sugars k3 d9 k3 e1, PS)”: 43%. For the sequence GAGCGATAGATCTCTT (sugars k3 d10 k3, PS), the target mRNA inhibition (1 µM) was 0%. ATAGAACTAGAACTCC (sugars k3 d10 k3, PS) gave a target mRNA inhibition (1 µM) of 22%. TATTGGTAAGTATTCC (sugars k3 d10 k3, PS) came in with a target mRNA inhibition (1 µM) of 67%. ATAAGAGATGAGTAGG (sugars k3 d10 k3, PS): for the setting “1 µM”, the target mRNA inhibition amounted to 56%. In turn, TTATAGACTGGGTAGG (sugars k3 d10 k3, PS) gave a target mRNA inhibition (1 µM) of 51%. Turning to “CTGCATTAATGCCACC (sugars k3 d9 k3 e1, PS)”, the target mRNA inhibition (1 µM) turned out to be 40%. TGAACAGTCTTAAACC (sugars k3 d10 k3, PS) returned a target mRNA inhibition (1 µM) of 56%. Sequence TATGGTAAGCCCCATG (sugars k3 d10 k3, PS) had a target mRNA inhibition (1 µM) of 30%. As to “GAGTUGCACCGTTTTG (sugars k3 d1 m1 d8 k3, PS)”, the target mRNA inhibition (1 µM) is 63%. Consider GTGTAGTCCTAGGGAG (sugars k3 d10 k3, PS), for which the target mRNA inhibition (1 µM) was found to be 67%.

Where the note is “1 µM”, “GGAGTGCATCTTAAGA (sugars k3 d9 k3 e1, PS)” displayed a target mRNA inhibition of 40%.

For the setting “1 µM”, CAACGCAACAGTTTAG (sugars k3 d10 k3, PS) displayed a target mRNA inhibition of 52%. With “CTTGAACAGTCTTAAA (sugars kkdddddddddkekek, PS)”, the target mRNA inhibition (1 µM) amounted to 38%. The same measure, in the same setting: next, “GACAUGAGGTTTTGAT (sugars k3 d1 m1 d8 k3, PS)”: 34%; GACTATAAAAAGGGAG (sugars k3 d10 k3, PS): 40%. TCTGTGGCATGGCTAC (sugars k3 d10 k3, PS) registered a target mRNA inhibition (1 µM) of 67%. Consider “CTTAAGATACCCAGGT (sugars k3 d9 k3 e1, PS)”, for which, for the setting “1 µM”, the target mRNA inhibition stood at 45%. The same measure, in the same setting: next, CGTTTGACTGCTGCTA (sugars k3 d10 k3, PS): 58%. AAGGTTAGATTTCATC (sugars k3 d10 k3, PS): the target mRNA inhibition was 1% (0.02 µM); 14% (0.078 µM); 60% (0.313 µM); 80% (1 µM); 64% (1.25 µM); 78% (5 µM).

With “CTACUTGAACAGTCTT (sugars k3 d1 m1 d8 k3, PS)”, the target mRNA inhibition reads like this: (0.02 µM) 9%; (0.078 µM) 22%; (0.313 µM) 46%; (1 µM) 79%; (1.25 µM) 77%; (5 µM) 76%. Sequence “CTTCATAGTGGACTTC (sugars k3 d1 m1 d8 k3, PS)” showed a target mRNA inhibition (1 µM) of 35%. In the case of ATCTTAAGGATCATTG (sugars k3 d10 k3, PS), the target mRNA inhibition (1 µM) stood at 7%. Under “1 µM”, GTTATTGTAGGGATTG (sugars k3 d10 k3, PS) displayed a target mRNA inhibition of 69%. For the sequence “AGTAGTGTAAGCTGAG (sugars k3 d9 k3 e1, PS)”, where the note is “1 µM”, the target mRNA inhibition is 71%. Regarding “GCATCTTAAGATACCC (sugars k3 d9 k3 e1, PS)”, the target mRNA inhibition came to 28% (0.02 µM); 34% (0.078 µM); 58% (0.313 µM); 84% (1 µM); 81% (1.25 µM); 83% (5 µM). ACATAGACATGTGTTC (sugars k3 d10 k3, PS) returned a target mRNA inhibition (1 µM) of 35%. “GTTGAGATAAAGCTGC (sugars kkdddddddddkekek, PS)” came in with a target mRNA inhibition (1 µM) of 40%.

In the case of GGTAAGGAATCCCTTC (sugars k3 d10 k3, PS), the target mRNA inhibition (1 µM) stood at 43%. In turn, GGTAATTAATCTTGTT (sugars k3 d10 k3, PS) returned a target mRNA inhibition (1 µM) of 58%.

Regarding GAGTCATAATTTGCTT (sugars k3 d10 k3, PS), the target mRNA inhibition (1 µM) was 57%.

Turning to AGTTTTCACCTCAGGT (sugars k3 d10 k3, PS), the target mRNA inhibition (1 µM) was 82%. AACTACAAGAGGTTAT (sugars k3 d10 k3, PS) returned a target mRNA inhibition (1 µM) of 57%. The sequence “AGCCAGTACAGTTCCT (sugars k3 d1 m1 d8 k3, PS)” had a target mRNA inhibition (1 µM) of 65%. As for CCAACCAAACTTCCAG (sugars k3 d10 k3, PS), the target mRNA inhibition (1 µM) came out at 70%. Turning to ACCGTATTCCCAACGC (sugars k3 d10 k3, PS), the target mRNA inhibition worked out at 14% (0.02 µM); 35% (0.078 µM); 76% (0.313 µM); 90% (1 µM); 83% (1.25 µM); 94% (5 µM). For the setting “1 µM”, GCATGCGCAGTGACGC (sugars k3 d10 k3, PS) yielded a target mRNA inhibition of 36%. Take TACATATCAATGCCTT (sugars k3 d10 k3, PS): the target mRNA inhibition (1 µM) turned out to be 38%. On the same count and under the same terms, next, GATAATTTGGTGTCAT (sugars k3 d10 k3, PS): 59%; “GAGTCGGTCACCTTTC (sugars k3 d1 m1 d8 k3, PS)”: 55%. Where the note is “1 µM”, “AGTTATTAGAAGTCAG (sugars k3 d9 k3 e1, PS)” showed a target mRNA inhibition of 56%. For GCTGGATATACTGTCC (sugars k3 d10 k3, PS), the target mRNA inhibition (1 µM) stood at 36%. Take GCTGCATTAATGCCAC (sugars k3 d10 k3, PS): the target mRNA inhibition (1 µM) came to 46%. The sequence TGTCCAGGTTGAGATA (sugars k3 d10 k3, PS) returned a target mRNA inhibition (1 µM) of 48%. The sequence GTGCACTCATTCTGTG (sugars k3 d10 k3, PS) displayed a target mRNA inhibition (1 µM) of 6%. As to ATTAACTACTTCACTA (sugars k3 d10 k3, PS), the target mRNA inhibition (1 µM) came to 14%. Sequence “AATAGAGTCGGTCACC (sugars k3 d9 k3 e1, PS)” yielded a target mRNA inhibition (1 µM) of 58%.

“AATGCTACTTGAACAG (sugars k3 d1 m1 d8 k3, PS)” showed a target mRNA inhibition (1 µM) of 34%. The sequence GGCAAATTTGCTGGAA (sugars k3 d10 k3, PS) came in with a target mRNA inhibition (1 µM) of 54%.

For ATTTAGAAACTGCTCC (sugars k3 d10 k3, PS), the target mRNA inhibition (1 µM) turned out to be 21%. As to “CACAAGTAAGGTAAAG (sugars k3 d9 k3 e1, PS)”, where the note is “1 µM”, the target mRNA inhibition amounted to 55%. For the sequence “CAGCATCAAGACATTC (sugars kkdddddddddkekek, PS)”, the target mRNA inhibition (1 µM) is 62%. “TGATATTCTGTGGCAT (sugars k3 d1 m1 d8 k3, PS)” returned a target mRNA inhibition (1 µM) of 61%. As to CGTAAAATTGTGTCTC (sugars k3 d10 k3, PS), the target mRNA inhibition (1 µM) was 43%. The same measure, in the same setting: with CCTCTAAGTTAGCCCC (sugars k3 d10 k3, PS) the figure was 97%. The sequence CTAATCTCAGTACTCC (sugars k3 d10 k3, PS) came in with a target mRNA inhibition (1 µM) of 53%. GTAGTGTAAGCTGAGA (sugars k3 d10 k3, PS): the target mRNA inhibition (1 µM) stood at 81%. TCATTCGAATTTCTTC (sugars k3 d10 k3, PS) registered a target mRNA inhibition (0.02 µM) of 16%; a target mRNA inhibition (0.078 µM) of 31%; a target mRNA inhibition (0.313 µM) of 54%; a target mRNA inhibition (1 µM) of 76%; a target mRNA inhibition (1.25 µM) of 79%; a target mRNA inhibition (5 µM) of 90%. In the case of CCATAGGACATGGAGA (sugars k3 d10 k3, PS), the target mRNA inhibition stood at 7% (0.02 µM); 12% (0.078 µM); 31% (0.313 µM); 68% (1 µM); 76% (1.25 µM); 90% (5 µM). “TTCCATCTATCAGACT (sugars k3 d9 k3 e1, PS)” returned a target mRNA inhibition (1 µM) of 43%. On to ACTATGTAATAGGCAG (sugars k3 d10 k3, PS), for which the target mRNA inhibition was determined as 33% (0.02 µM); 31% (0.078 µM); 71% (0.313 µM); 85% (1 µM); 88% (1.25 µM); 94% (5 µM).

For the sequence GATCTCTTAGCTGTGC (sugars k3 d10 k3, PS), the target mRNA inhibition (1 µM) was found to be 64%.

Take AATACTCCCCAATTGC (sugars k3 d10 k3, PS): where the note is “1 µM”, the target mRNA inhibition was 0%. The same measure, in the same setting: next, ATACATTAGCAAGCTA (sugars k3 d10 k3, PS): 69%; “AGCAGAATTGTGAACG (sugars k3 d9 k3 e1, PS)”: 56%.

With “ATCTATCAGACTTCTT (sugars k3 d1 m1 d8 k3, PS)”, the target mRNA inhibition (1 µM) worked out at 34%. As for TGAGCCTAAAATTGTC (sugars k3 d10 k3, PS), the target mRNA inhibition (1 µM) amounted to 30%.

TGTGAGAAGGCGGTAT (sugars k3 d10 k3, PS) came in with a target mRNA inhibition (1 µM) of 20%. “AGTGCCAAACCAATGT (sugars k3 d9 k3 e1, PS)” gave a target mRNA inhibition (1 µM) of 60%.

In turn, GACCATGCTGCTACTC (sugars k3 d10 k3, PS) returned a target mRNA inhibition (1 µM) of 74%.

For CCGCCCTTAAGTCATT (sugars k3 d10 k3, PS), the target mRNA inhibition (1 µM) was determined as 53%. Turning to TTGCAGTTATTAGAAG (sugars k3 d10 k3, PS), where the note is “1 µM”, the target mRNA inhibition amounted to 13%.

“GCAGAAATTCACCTTG (sugars kkdddddddddkekek, PS)” gave a target mRNA inhibition (1 µM) of 53%. On the same count and under the same terms, next, TGAGATTACCCCTGGC (sugars k3 d10 k3, PS): 53%; TGCTTTAGCTTAAACT (sugars k3 d10 k3, PS): 51%; “CAAAAGACTTTGAGAC (sugars k3 d9 k3 e1, PS)”: 13%.

The values are drawn from the OligoGym collection.
